Entries after “also recorded” stand apart in the source; their conditions may differ.
Experiments:
[1] = test system: human colon adenocarcinoma cell line SW480; assay: alamarBlue tumor cell proliferation assay, SW480; type: cell-based
Experimental: (§1) Tumor cell proliferation was assessed by the calorimetric MTT-like alamarBlue assay that is based on detection of metabolite activity. To determine clonogenic survival the number of singular cells plated was adjusted to obtain about 100 colonies per dish with a given treatment. After 24 h exposure to the different drugs cells were irradiated and then allowed to grow for 8 to 10 days before fixation In methanol/acetic acid (75%/25%) and staining with crystal violet. Only colonies with more than 50 cells/colony were counted. The plating efficiency (PE) of untreated cells was determined and calculated as PE (%)=(scored colonies/number of plated cells)×100. The surviving fraction (SF) with a given treatment was determined by SF=(scored colonies)/(number of plated cells×PE/100). […] Irradiation of cell cultures was carried out at RT in tissue culture dishes (100×100 mm) or in 96-well plates using a Pantak Therapax […] X-ray unit at 0.7 Gy/min. Dosimetry was controlled with a Vigilant-dosimeter.
(§2) Initial proliferation assays were performed to determine the dose range of epothilone B to be applied for combined treatment with ionizing radiation. […] For this combined treatment modality cells were pretreated for 24 h with epothilone B prior to irradiation.

SW480 = assay: clonogenic survival assay, SW480; type: cell-based, human
Experimental: (§3) Tumor cell proliferation was assessed by the calorimetric MTT-like alamarBlue assay that is based on detection of metabolite activity. To determine clonogenic survival the number of singular cells plated was adjusted to obtain about 100 colonies per dish with a given treatment. After 24 h exposure to the different drugs cells were irradiated and then allowed to grow for 8 to 10 days before fixation In methanol/acetic acid (75%/25%) and staining with crystal violet. Only colonies with more than 50 cells/colony were counted. The plating efficiency (PE) of untreated cells was determined and calculated as PE (%)=(scored colonies/number of plated cells)×100. The surviving fraction (SF) with a given treatment was determined by SF=(scored colonies)/(number of plated cells×PE/100). Clonogenic assays were performed at least twice and absence of error bars is due to minimal standard deviations. Irradiation of cell cultures was carried out at RT in tissue culture dishes (100×100 mm) or in 96-well plates using a Pantak Therapax […] X-ray unit at 0.7 Gy/min. Dosimetry was controlled with a Vigilant-dosimeter.
(§4) The clonogenic assay is based on the outgrowth of compact clones from singular cells that are seeded at low density in a petri dish. Clonal outgrowth under the different treatment conditions can be quantified and compared.

E1A/ras-transformed MEFs = assay: clonogenic survival assay, E1A/ras-transformed MEF; type: cell-based, murine; conditions: 24 h drug exposure then irradiation
Experimental: as §3, §4

[2] = test system: E1A/ras transformed p53-/- MEF; type: cell-based, murine; conditions: for proliferative activity, drug alone / proliferative activity, drug in combination with ionizing radiation: murine fibrosarcoma cell line, low nanomolar range, comparable extent for both drugs
Experimental: as §1, §2

Compound | proliferation, response to drug ([1]; SW480, doses up to 500 nM) | clonogenic survival, combined treatment with ionizing radiation (SW480; Paclitaxel-resistant SW480, only at very high concentrations of Paclitaxel) | clonogenic survival, combined treatment with ionizing radiation (E1A/ras-transformed MEFs) | proliferative activity, drug alone [2] | proliferative activity, drug in combination with ionizing radiation [2] | antiproliferative effect of combined treatment with ionizing radiation ([1]; SW480, ionizing radiation 5Gy, 24 h drug pretreatment prior to irradiation) | antiproliferative dose response, drug alone ([1]; SW480, over 72 hours, without irradiation) | clonogenic survival, combined treatment with ionizing radiation (SW480; SW480, 24 h drug exposure then irradiation) | clonogenic survival, sensitivity of SW480 relative to MEFs (SW480; SW480 compared with E1A/ras-transformed MEFs) | antiproliferative effect of combined treatment with ionizing radiation ([2]; E1A/ras transformed p53-/- MEF, ionizing radiation 5Gy, 24 h drug pretreatment prior to irradiation) | antiproliferative dose response, drug alone ([2]; E1A/ras transformed p53-/- MEF, over 72 hours, without irradiation)
CC(=O)O[C@H]1C(=O)[C@@]2(C)[C@H]([C@H](OC(=O)c3ccccc3)[C@]3(O)C[C@H](OC(=O)[C@H](O)[C@@H](NC(=O)c4ccccc4)c4ccccc4)C(C)=C1C3(C)C)[C@]1(OC(C)=O)CO[C@@H]1C[C@@H]2O [Paclitaxel, reference compound] | refractory | at least additive effect | at least additive effect | reduced the proliferative activity | reduced the proliferative activity |  |  |  |  |  | 
C/C(=C\c1csc(C)n1)[C@@H]1C[C@@H]2O[C@]2(C)CCC[C@H](C)[C@H](O)[C@@H](C)C(=O)C(C)(C)[C@@H](O)CC(=O)O1 [epothilone B] |  |  | at least additive effect | reduced the proliferative activity | reduced the proliferative activity | at least additive antiproliferative effect; also recorded: retains full activity | subnanomolar and low nanomolar range; also recorded: enhanced sensitivity; also recorded: retains full activity | at least additive effect | more sensitive | at least additive antiproliferative effect | subnanomolar and low nanomolar range

Source: patent publication US20070129411A1, “Treatment of proliferative diseases with epothilone derivatives and radiation” (priority 2003, published 2007)
